Reference: BigSolDB 2.1

Cc1ccc(N)c([N+](=O)[O-])c1
solubility (mole fraction)
Details	in 1,2-dichloroethane	in 1,4-dioxane	in 2-butanone	in DMF	in acetonitrile	in chlorobenzene	in ethanol
278.15 K	0.0289	–	0.12	0.0984	0.0274	0.016	0.00983
280.65 K	0.0326	–	0.128	0.105	0.0302	0.0174	0.0107
283.15 K	0.0355	0.0404	0.136	0.112	0.0334	0.0194	0.0118
285.65 K	0.0397	0.0452	0.144	0.122	0.0369	0.0216	0.0128
288.15 K	0.0432	0.0507	0.153	0.131	0.0406	0.0239	0.0139
290.65 K	0.0468	0.0568	0.162	0.14	0.0447	0.0262	0.0152
293.15 K	0.0506	0.0637	0.171	0.15	0.0493	0.0288	0.0165
295.65 K	0.0548	0.0712	0.181	0.161	0.0543	0.0316	0.0179
298.15 K	0.0594	0.0794	0.191	0.171	0.0602	0.0349	0.0194
300.65 K	0.0642	0.0883	0.202	0.182	0.0657	0.0383	0.021
303.15 K	0.0692	0.0986	0.213	0.194	0.0721	0.0421	0.0228
305.65 K	0.0747	0.11	0.224	0.206	0.0794	0.0463	0.0246
308.15 K	0.0806	0.121	0.236	0.219	0.0872	0.0507	0.0266
310.65 K	0.087	0.134	0.249	0.232	0.0955	0.0556	0.0289
313.15 K	0.0937	0.149	0.261	0.247	0.105	0.0611	–
315.65 K	0.101	–	–	–	–	0.0671	–
318.15 K	0.109	–	–	–	–	0.0738	–
